In general, IC50 refers to the concentration that inhibits the measured activity by half.

Some results are limits rather than exact numbers.

For this assay, the target named is T1, G1 APOL1 (Homo sapiens, UniProt O14791, I384M/S342G).
T1 construct: expressed in transfected cells
T1 sequence (O14791 28-398 S342G/I384M): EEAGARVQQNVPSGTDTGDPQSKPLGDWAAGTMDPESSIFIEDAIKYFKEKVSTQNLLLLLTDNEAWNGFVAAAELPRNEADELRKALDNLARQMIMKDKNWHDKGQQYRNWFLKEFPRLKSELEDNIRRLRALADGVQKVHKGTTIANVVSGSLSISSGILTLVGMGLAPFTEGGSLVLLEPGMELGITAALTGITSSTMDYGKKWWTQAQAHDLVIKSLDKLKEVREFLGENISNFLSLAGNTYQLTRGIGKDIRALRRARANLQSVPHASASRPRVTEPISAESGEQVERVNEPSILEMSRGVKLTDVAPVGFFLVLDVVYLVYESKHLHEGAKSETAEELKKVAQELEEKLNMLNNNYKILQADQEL
Kind of assay: Acute APOL1 Thallium Assay with Inducible Stable Clones of HEK 293 Cells. Type of assay: cell-based. Particulars: HEK 293 inducible stable clones, G1 APOL1; read-out: Thallium Assay (IC50). The source says: Acute APOL1 Thallium Assay with Inducible Stable Clones of HEK 293 Cells
Apolipoprotein L1 (APOL1) proteins form potassium-permeable cation pores in the plasma membrane. APOL1 risk variants (G1 and G2) induce greater potassium flux than G0 in HEK293 cells. This assay exploits the permeability of thallium (Tl+) through ligand-gated potassium channels. The dye produces a bright fluorescent signal upon binding to Tl+ conducted through potassium channels. The intensity of the Tl+ signal is proportional to the number of potassium channels in the open state. Therefore, it provides a functional indication of the potassium channel activities. During the initial dye-loading step, the Tl+ indicator dye as an acetoxymethyl (AM) ester enters the cells through passive diffusion. Cytoplasm esterases cleave the AM ester and relieve its active thallium-sensitive form. The cells are then stimulated with Tl+. The increase of fluorescence in the assay represents the influx of Tl+ into the cell specifically through the potassium channel (i.e. through APOL1 pores), providing a functional measurement of potassium channel/pore activity. The Thallium assay is conducted with cells expressing G1 APOL1.
APOL1 Cell Line (HEK T-Rex Stable Inducible Cell Line) • HEK T-Rex System • Tetracycline (Tet) inducible mammalian expression system. • Stably express the Tet repressor to regulate transcription. • Expression under the full-length CMV promoter. • APOL1 stable inducible cell line Clone used: G1 DC3.25
Tissue Culture Media • Cell Culture Medium • DMEM+10% FBS+P/S+5 μg/mL blasticidin+1 μg/mL puromycin. • 500 mL DMEM+55 mL FBS+5 mL P/S+280 μL blasticidin S HCl (10 mg/mL)+56 μL puromycin (10 mg/mL). • Cell Assay Medium • DMEM with 2% FBS+penicillin/streptomycin.
Instruments and Equipment • Nuaire cell culture hood, Cat. No. 540-600 • 37° C./5% CO2 incubator link to robotic arm, Liconic: STX110 • Molecular Devices FLIPR^Tetra High throughput cellular screening system, Cat. No. FT0324, Molecular Devices • ThermoFisher MultiDrop 384, Cat. No. 5840300 • Biotek Microfill, Cat. No. ASF1000A-4145 • BioRad TC10 cell counter, Cat. No. 145-0010
Cells Scaled Up from Frozen Vials • APOL1 G1 3.25 (HEK293 T-Rex) frozen vials: 5 million cells per vial • Step 1, Day 1: Defrost frozen vial into T-225. • Step 2, Day 5: (when 85% confluent): Split one T-225 at 3×10^6 cells per flask. • Step 3, Day 8: Splits cells to set up for the assay plates as described below.
T-Rex APOL1 HEK cells are split twice per week to keep the confluence state below 85% of the culture flask surface area. Cells can be kept until passage 25. • Cell Culture Medium • DMEM high glucose+10% FBS, +P/S, +5 μg/mL blasticidin, +1 μg/mL puromycin. • 500 mL DMEM, +55 mL FBS, +5 mL P/S, +280 μL blasticidin 10 mg/mL, +56 μL Puromycin 10 mg/mL. • Assay Media • Opti-MEM reduced serum medium from Invitrogen.
Preparation of Cell Assay Plates • Culture medium is removed from the x cm^2 T-flask by aspiration. • The cell monolayer is rinsed with PBS 1× at room temperature. PBS is removed by aspiration. • Cells are trypsinized using Trypsin. • The flasks are incubated at room temperature for 2-3 minutes. • Complete DMEM medium is then added. Cell suspension is then transferred to a 50 mL Falcon polypropylene tube. • Cells are then counted using a BioRad TC10 cell counter and the required amount of cells are centrifuged at 1200 RPM for 5 minutes. Required amount is 1.3×10^6 cells/mL APOL1 T-Rex HEK cells. • The pellet is suspended in the assay medium. • Using the MultiDrop, add 20 μL to each well (corresponds to 26000 cells total per well) of a 384-well black, transparent, flat bottom Poly-D coated plate. • Tetracycline as prepared in the following section is added to the cells before plating to induce APOL1 expression. • Plates are left at room temperature for 20 to 30 minutes before incubation at 37° C. and 5% CO2. […]
Turning to `CC(CO)NC(=O)OCCc1c(-c2ccc(F)cc2)[nH]c2c(F)cc(F)cc12` (racemic) [Compound 439], the IC50 was < 0.25 µM.

As for `O=C(NCCO)OCCc1c(-c2ccc(F)cc2)[nH]c2c(F)cc(F)cc12` [Compound 443], the IC50 was < 0.25 µM.

Turning to `CC(NC(=O)OCCc1c(-c2ccc(F)cc2)[nH]c2c(F)cc(F)cc12)C(N)=O` (racemic) [Compound 460], the IC50 was in the range of 0.25 to 1 µM.

As for `CC(CO)(CO)NC(=O)CCc1c(-c2ccc(F)cc2)[nH]c2c(F)cc(Cl)cc12` [Compound 197], the IC50 fell in the range of 0.25 to 1 µM.

In the case of `O=C(CCc1c(-c2ccc(F)cc2)[nH]c2c(F)cc(F)cc12)NC1=CCNC1=O` [Compound 94, 3-[5,7-difluoro-2-(4-fluorophenyl)-1H-indol-3-yl]-N-(5-oxo-1,2-dihydropyrrol-4-yl)propanamide], the IC50 is > 1 µM.

In the case of `O=C(Cc1c(-c2ccc(F)cc2)[nH]c2ccccc12)NCC(O)CO` (centres unmarked) [Compound 516, N-(2,3-dihydroxypropyl)-2-(2-(4-fluorophenyl)-1H-indol-3-yl)acetamide], the IC50 was > 1 µM.

For `O=C(CO)NCCc1c(-c2ccc(F)cc2)[nH]c2c(F)cc(F)cc12` [Compound 365], the IC50 is > 1 µM.

For `O=C(NCCc1c(-c2ccc(F)cc2)[nH]c2c(F)cc(F)cc12)NCC1(O)CCCC1` [Compound 266], the IC50 is > 1 µM.

Take `CC(C)(C)OC(=O)NC(CC(N)=O)C(=O)NCCc1c(-c2ccc(F)cc2)[nH]c2c(F)cc(F)cc12` (centres unmarked) [Compound 304, tert-butyl N-[3-amino-1-[2-[5,7-difluoro-2-(4-fluorophenyl)-1H-indol-3-yl]ethylcarbamoyl]-3-oxo-propyl]carbamate]: the IC50 lay within 0.25 to 1 µM.

For `NC(=O)CNC(=O)CCc1c(-c2ccc(F)cc2)[nH]c2c(F)cc(Cl)cc12` [Compound 201], the IC50 is > 1 µM.

For `Cn1cc(C(=O)NCCc2c(-c3ccc(F)cc3)[nH]c3c(F)cc(F)cc23)cn1` [Compound 391], the IC50 was > 1 µM.

With `CC(C)(O)C#Cc1c(-c2ccc(F)cc2)[nH]c2c(F)cc(F)cc12` [Compound 523, 4-[5,7-difluoro-2-(4-fluorophenyl)-1H-indol-3-yl]-2-methyl-but-3-yn-2-ol], the IC50 is > 1 µM.

For `CC(CC#N)NC(=O)NCCc1c(-c2ccc(F)cc2)[nH]c2c(F)cc(F)cc12` (racemic) [Compound 301], the IC50 was < 0.25 µM.

For `CC(O)CS(=O)(=O)NCCc1c(-c2ccc(F)cc2)[nH]c2c(F)cc(F)cc12` (centres unmarked) [Compound 421], the IC50 was > 1 µM.

For `NC(=O)[C@@H](CO)NC(=O)OCCc1c(-c2ccc(F)cc2)[nH]c2c(F)cc(F)cc12` [Compound 447], the IC50 was < 0.25 µM.

For `O=C1C[C@H](NC(=O)CCCc2c(-c3ccc(F)cc3)[nH]c3c(F)cc(F)cc23)C(=O)N1` [Compound 245], the 50% inhibitory concentration (IC50) is > 1 µM.

With `O=C(NCCc1c(-c2ccc(F)cc2)[nH]c2c(F)cc(F)cc12)C1(CO)CC1` [Compound 347], the IC50 was < 0.25 µM.

Take `O=C(CCCc1c(-c2ccc(F)cc2)[nH]c2c(F)cc(F)cc12)N[C@H]1CCNC1=O` [Compound 249]: the IC50 was > 1 µM.

`O=C(NC(CO)CF)OCCc1c(-c2ccc(F)cc2)[nH]c2c(F)cc(F)cc12` (centres unmarked) [Compound 471]: the IC50 is 0.25 to 1 µM.

On to `C[C@]1(O)C[C@@H](NC(=O)OCCc2c(-c3ccc(F)cc3)[nH]c3c(F)cc(F)cc23)C1` [Compound 489], for which the IC50 was > 1 µM.

Regarding `O=C(NCCc1c(-c2ccc(F)cc2)[nH]c2c(F)cc(F)cc12)N1CCC[C@H]1CO` [Compound 296], the IC50 was > 1 µM.

Take `CC1(C(=O)NCCc2c(-c3ccc(F)cc3)[nH]c3c(F)cc(F)cc23)CCC(=O)NC1` (centres unmarked) [Compound 319]: the IC50 is > 1 µM.

Regarding `Cn1nccc1CNC(=O)CCCc1c(-c2ccc(F)cc2)[nH]c2c(F)cc(F)cc12` [Compound 255], the IC50 is > 1 µM.

Take `O=C1C[C@@H](NC(=O)CCCc2c(-c3ccc(F)cc3)[nH]c3c(F)cc(F)cc23)C(=O)N1` [Compound 242]: the IC50 was > 1 µM.

In the case of `CC(CO)(CO)NC(=O)OCCc1c(-c2ccc(F)cc2)[nH]c2c(F)cc(F)cc12` [Compound 434, 2-[5,7-difluoro-2-(4-fluorophenyl)-1H-indol-3-yl]ethyl N-[2-hydroxy-1-(hydroxymethyl)-1-methyl-ethyl]carbamate], the IC50 was < 0.25 µM.

As for `Cn1ccc(C(=O)NCCc2c(-c3ccc(F)cc3)[nH]c3c(F)cc(F)cc23)n1` [Compound 390], the IC50 is > 1 µM.

As for `CS(=O)(=O)CCNC(=O)NCCc1c(-c2ccc(F)cc2)[nH]c2c(F)cc(F)cc12` [Compound 287], the IC50 was > 1 µM.

As for `CC(C)(C)OC(=O)N[C@@H](CO)C(=O)NCCc1c(-c2ccc(F)cc2)[nH]c2c(F)cc(F)cc12` [Compound 308], the IC50 was > 1 µM.

Consider `O=C(NCCc1c(-c2ccc(F)cc2)[nH]c2c(F)cc(F)cc12)[C@H]1CC[C@@H](O)CC1` [Compound 324], for which the IC50 was > 1 µM.

On to `Cn1cnc(CNC(=O)CCCc2c(-c3ccc(F)cc3)[nH]c3c(F)cc(F)cc23)c1` [Compound 244], for which the IC50 is > 1 µM.

In the case of `O=C(NCCc1c(-c2ccc(F)cc2)[nH]c2c(F)cc(F)cc12)c1ccnnc1` [Compound 399], the IC50 was > 1 µM.

For the compound `O=C(NCCc1c(-c2ccc(F)cc2)[nH]c2c(F)cc(F)cc12)C(O)C(F)(F)F` (centres unmarked) [Compound 327], the IC50 was in the range of 0.25 to 1 µM.

Regarding `O=C(N[C@@H]1CCNC1=O)OCCc1c(-c2ccc(F)cc2)[nH]c2c(F)cc(F)cc12` [Compound 448], the IC50 was < 0.25 µM.

Take `O=C(CCc1c(-c2ccc(F)cc2)[nH]c2c(F)cc(Cl)cc12)N[C@@H](CO)C(F)(F)F` [Compound 207]: the IC50 is < 0.25 µM.

With `COc1ccc2[nH]c(-c3ccc(F)cc3)c(CCNC(=O)OC(C)(C)C)c2c1` [Compound 430, tert-butyl N-[2-[2-(4-fluorophenyl)-5-methoxy-1H-indol-3-yl]ethyl]carbamate], the IC50 is > 1 µM.

With `O=C(NCCc1c(-c2ccc(F)cc2)[nH]c2c(F)cc(F)cc12)C1CC(O)(C(F)(F)F)C1` (centres unmarked) [Compound 314], the IC50 was > 1 µM.

For the compound `O=C(CCc1c(-c2ccc(F)cc2)[nH]c2c(F)cc(Cl)cc12)NC[C@H](O)CO` [Compound 204], the IC50 is > 1 µM.

Regarding `Cc1occc1C(=O)NCCc1c(-c2ccc(F)cc2)[nH]c2c(F)cc(F)cc12` [Compound 394], the IC50 is > 1 µM.

`O=C(CCc1c(-c2ccc(F)cc2)[nH]c2c(F)cc(F)cc12)N[C@@H](CO)C(F)F` [Compound 132]: the IC50 was < 0.25 µM.

Regarding `O=C(Cn1cccc1)NCCc1c(-c2ccc(F)cc2)[nH]c2c(F)cc(F)cc12` [Compound 395], the IC50 was > 1 µM.

In the case of `Cn1ccnc1C(=O)NCCc1c(-c2ccc(F)cc2)[nH]c2c(F)cc(F)cc12` [Compound 388], the IC50 lay within 0.25 to 1 µM.

The record behind these values is US20230014907A1, “INHIBITORS OF APOL1 AND METHODS OF USING SAME” (Vertex Pharmaceuticals Incorporated, priority 2020, published 2023).
